Data published in US9670142B2, “1,3-diaminocyclopentane carboxamide derivatives” (Merck Patent GmbH, priority 2013, dated 2017).

molecular target: human fatty acid synthase FASN (Homo sapiens (Human), UniProt P49327); experiment: Biochemical activity testing of human fatty acid synthase FASN (NADPH fluorescence intensity enzyme assay); conditions: human recombinant full-length fatty acid synthase
In short: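 In-house Sf9-expressed full-length enzyme (3 μL of 40 nM) in 50 mM potassium phosphate pH 7.0 with glutathione, BSA and Tween-20, plus NADPH (2 μL of 200 μM), preincubated ≥15 min with compound (10 concentrations from 30 μM final, 1% DMSO). Acetyl-CoA/malonyl-CoA added; NADPH fluorescence (ex 340/em 460 nm) read before and after 30 min at room temperature, difference used for IC50.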

Chain of human fatty acid synthase FASN (P49327 whole entry): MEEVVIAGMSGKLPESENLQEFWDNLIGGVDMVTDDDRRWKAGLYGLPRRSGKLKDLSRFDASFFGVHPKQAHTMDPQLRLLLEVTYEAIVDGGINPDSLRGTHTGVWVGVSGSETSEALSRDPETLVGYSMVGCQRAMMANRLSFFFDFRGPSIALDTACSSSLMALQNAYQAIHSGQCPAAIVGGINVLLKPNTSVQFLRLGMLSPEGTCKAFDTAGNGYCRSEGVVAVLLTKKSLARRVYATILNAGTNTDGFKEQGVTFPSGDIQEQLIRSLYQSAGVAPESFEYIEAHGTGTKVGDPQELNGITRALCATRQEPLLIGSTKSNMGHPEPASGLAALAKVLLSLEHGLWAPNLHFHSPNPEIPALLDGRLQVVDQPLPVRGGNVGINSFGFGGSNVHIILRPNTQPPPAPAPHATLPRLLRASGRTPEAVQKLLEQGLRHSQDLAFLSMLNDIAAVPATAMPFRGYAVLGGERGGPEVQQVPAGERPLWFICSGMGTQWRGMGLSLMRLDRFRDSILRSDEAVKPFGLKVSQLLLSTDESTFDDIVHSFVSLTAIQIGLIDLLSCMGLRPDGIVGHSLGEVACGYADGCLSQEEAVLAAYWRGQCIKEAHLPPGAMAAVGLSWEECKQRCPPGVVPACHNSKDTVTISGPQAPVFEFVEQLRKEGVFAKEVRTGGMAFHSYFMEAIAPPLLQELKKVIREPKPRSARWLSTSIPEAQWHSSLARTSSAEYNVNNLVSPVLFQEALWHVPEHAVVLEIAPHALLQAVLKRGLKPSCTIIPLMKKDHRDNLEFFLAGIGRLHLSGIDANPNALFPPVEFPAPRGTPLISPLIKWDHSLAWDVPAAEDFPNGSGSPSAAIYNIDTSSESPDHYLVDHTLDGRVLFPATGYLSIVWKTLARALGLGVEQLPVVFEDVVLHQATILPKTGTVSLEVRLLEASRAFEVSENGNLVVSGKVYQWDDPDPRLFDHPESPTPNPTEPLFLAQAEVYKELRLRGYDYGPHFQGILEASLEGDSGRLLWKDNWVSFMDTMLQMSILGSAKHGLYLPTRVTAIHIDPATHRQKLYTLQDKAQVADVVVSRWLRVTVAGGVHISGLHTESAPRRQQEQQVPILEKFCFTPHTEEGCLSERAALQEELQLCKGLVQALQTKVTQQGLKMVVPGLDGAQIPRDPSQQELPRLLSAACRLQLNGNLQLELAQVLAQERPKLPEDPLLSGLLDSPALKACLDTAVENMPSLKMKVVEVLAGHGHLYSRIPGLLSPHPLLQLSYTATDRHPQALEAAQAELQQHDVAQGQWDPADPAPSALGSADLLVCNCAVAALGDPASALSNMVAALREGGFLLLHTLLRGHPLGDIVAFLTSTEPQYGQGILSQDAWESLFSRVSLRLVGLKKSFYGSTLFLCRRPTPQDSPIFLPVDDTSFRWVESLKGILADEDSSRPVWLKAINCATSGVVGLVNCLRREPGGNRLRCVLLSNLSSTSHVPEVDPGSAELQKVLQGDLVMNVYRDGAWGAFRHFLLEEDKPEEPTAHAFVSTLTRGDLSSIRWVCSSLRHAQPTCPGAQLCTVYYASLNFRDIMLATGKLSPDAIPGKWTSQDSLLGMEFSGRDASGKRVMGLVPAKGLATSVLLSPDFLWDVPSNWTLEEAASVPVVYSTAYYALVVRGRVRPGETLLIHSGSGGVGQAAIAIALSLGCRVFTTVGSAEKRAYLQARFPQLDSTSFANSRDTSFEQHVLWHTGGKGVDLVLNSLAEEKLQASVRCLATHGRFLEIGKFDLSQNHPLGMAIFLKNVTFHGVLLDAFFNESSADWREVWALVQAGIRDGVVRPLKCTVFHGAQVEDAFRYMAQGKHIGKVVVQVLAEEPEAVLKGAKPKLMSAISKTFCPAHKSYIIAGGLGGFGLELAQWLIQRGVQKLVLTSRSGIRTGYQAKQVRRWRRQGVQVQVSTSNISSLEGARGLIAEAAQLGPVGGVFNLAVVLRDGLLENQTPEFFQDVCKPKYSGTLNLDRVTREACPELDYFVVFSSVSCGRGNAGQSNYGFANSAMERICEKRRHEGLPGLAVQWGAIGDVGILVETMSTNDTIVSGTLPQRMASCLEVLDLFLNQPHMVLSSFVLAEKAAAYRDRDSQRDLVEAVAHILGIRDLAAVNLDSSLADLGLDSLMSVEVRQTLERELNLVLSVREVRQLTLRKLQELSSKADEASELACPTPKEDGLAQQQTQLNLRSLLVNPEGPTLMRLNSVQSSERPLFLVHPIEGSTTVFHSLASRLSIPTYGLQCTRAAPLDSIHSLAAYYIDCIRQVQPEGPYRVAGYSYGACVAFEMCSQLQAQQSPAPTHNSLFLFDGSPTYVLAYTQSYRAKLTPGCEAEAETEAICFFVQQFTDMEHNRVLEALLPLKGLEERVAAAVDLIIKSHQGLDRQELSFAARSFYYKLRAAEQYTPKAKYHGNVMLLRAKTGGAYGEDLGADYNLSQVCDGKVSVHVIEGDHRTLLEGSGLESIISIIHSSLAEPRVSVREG

| IC50 | SMILES |
| --- | --- |
| 0.3 to 3 µM | CN(C(=O)c1ccc(-c2nc3ccccc3o2)cc1)[C@@H]1CC[C@H](NC(=O)c2ccncc2)C1 [Compound A22, N-{(1S,3R)-3-[(4-benzoxazol-2-yl-benzoyl)-methyl-amino]-cyclopentyl}-isonicotinamide] |
| 0.3 to 3 µM | CN(C(=O)c1ccc(-c2nc3ccc(Cl)cc3o2)nn1)[C@@H]1CC[C@H](NC(=O)[C@@H]2CCCO2)C1 [Compound A158, 6-(6-chloro-1,3-benzoxazol-2-yl)-N-methyl-N-[(1R,3S)-3-[[(2S)-tetrahydrofuran-2-carbonyl]amino]cyclopentyl]pyridazine-3-carboxamide] |
| 3 to 50 µM | CCC(=O)N[C@H]1CC[C@@H](N(C)C(=O)c2ccc(-c3nc4ccc(Cl)cc4o3)nn2)C1 [Compound A155, 6-(6-chloro-benzoxazol-2-yl)-pyridazine-3-carboxylic acid methyl-((1R,3S)-3-propionylamino-cyclopentyl)-amide] |
